Among the data in article PMC6171417, “Carbonic anhydrase inhibition with a series of novel benzenesulfonamide-triazole conjugates” (Journal of Enzyme Inhibition and Medicinal Chemistry, 2018) are Ki values, retold here.

Common to all, as to experiment: stopped-flow CO2 hydrase assay
Holding throughout (assay type): biochemical

One test deals with T1, hCA IX (Homo sapiens, UniProt Q16790).
T1 construct: gene CA9; recombinant, obtained in-house as reported earlier
An excerpt: stopped-flow CO2 hydrase assay on hCA IX

The target in another test is T2, hCA IV (Homo sapiens, UniProt P22748).
T2 construct: gene CA4; recombinant, obtained in-house as reported earlier
An excerpt:
stopped-flow CO2 hydrase assay on hCA IV

The next test deals with T3, hCA I (Homo sapiens, UniProt P00915).
T3 construct: gene CA1; recombinant, obtained in-house as reported earlier; cytosolic
An excerpt: stopped-flow CO2 hydrase assay on hCA I

The target in the next test is T4, hCA II (Homo sapiens, UniProt P00918).
T4 construct: gene CA2; recombinant, obtained in-house as reported earlier; cytosolic
An excerpt:
stopped-flow CO2 hydrase assay on hCA II

T2 sequence (P22748 19-284): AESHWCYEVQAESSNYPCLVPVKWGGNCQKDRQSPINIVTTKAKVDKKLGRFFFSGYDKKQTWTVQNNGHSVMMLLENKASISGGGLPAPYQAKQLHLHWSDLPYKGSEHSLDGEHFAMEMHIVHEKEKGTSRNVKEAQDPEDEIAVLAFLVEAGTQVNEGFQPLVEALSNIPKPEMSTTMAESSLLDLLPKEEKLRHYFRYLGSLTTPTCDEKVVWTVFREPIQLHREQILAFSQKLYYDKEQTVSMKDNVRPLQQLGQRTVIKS
T3 sequence (P00915 2-261): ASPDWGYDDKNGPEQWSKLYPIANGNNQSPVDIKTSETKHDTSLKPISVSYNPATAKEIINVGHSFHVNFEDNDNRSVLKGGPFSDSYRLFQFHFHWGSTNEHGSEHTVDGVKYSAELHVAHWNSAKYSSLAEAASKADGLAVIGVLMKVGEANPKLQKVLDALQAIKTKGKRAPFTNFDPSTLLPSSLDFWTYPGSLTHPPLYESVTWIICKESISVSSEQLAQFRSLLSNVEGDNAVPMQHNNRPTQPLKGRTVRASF

Consider `Nc1c(C2=NCCN2)nnn1-c1ccc(S(N)(=O)=O)cc1` [compound 4, 4-(5-amino-4-(4,5-dihydro-1H-imidazol-2-yl)-1H-1,2,3-triazol-1-yl)benzenesulfonamide], for which the Ki (usually a dissociation constant, usually derived from enzyme kinetics or from competition with a known ligand) on hCA IX worked out at 3710 nM; on hCA IV, 3190 nM; on hCA I, 9940 nM; at hCA II, 6840 nM.
As for `N#Cc1nnn(-c2ccc(S(N)(=O)=O)cc2)c1NCC(=O)c1ccccc1` [compound 7, 4-(4-cyano-5-((2-oxo-2-phenylethyl)amino)-1H-1,2,3-triazol-1-yl)benzenesulfonamide], the Ki at hCA IX is 283 nM; on hCA IV it was 745 nM; at hCA I it was 1790 nM; at hCA II, 562 nM.
With `N#Cc1nnn(-c2ccc(S(N)(=O)=O)cc2)c1/N=C/c1ccccc1Cl` [compound 8, (E)-4-(5-((2-chlorobenzylidene)amino)-4-cyano-1H-1,2,3-triazol-1-yl)-benzenesulfonamide], the Ki is 1770 nM on hCA IX, above 10000 nM on hCA IV, 5140 nM at hCA I and 6130 nM at hCA II.
Consider `N#Cc1nnn(-c2ccc(S(N)(=O)=O)cc2)c1NC(=O)CCl` [compound 5, 2-chloro-N-(4-cyano-1-(4-sulfamoylphenyl)-1H-1,2,3-triazol-5-yl)acetamide], for which the Ki on hCA IX was 454 nM; on hCA IV it was 1200 nM; at hCA I it was 2550 nM; on hCA II, 518 nM.
For `N#Cc1c(-c2ccccc2Cl)nc2c(nnn2-c2ccc(S(N)(=O)=O)cc2)c1N` [compound 15, 4-(7-amino-5-(2-chlorophenyl)-6-cyano-3H-[1,2,3]triazolo[4,5-b]pyridin-3-yl)benzenesulfonamide], the Ki on hCA IX is 407 nM; on hCA IV, 2580 nM; at hCA I, 2690 nM; on hCA II it was 230 nM.
With `N#Cc1c(N)c2nnn(-c3ccc(S(N)(=O)=O)cc3)c2[nH]c1=O` [compound 13, 4-(7-amino-6-cyano-5-oxo-4,5-dihydro-3H-[1,2,3]triazolo[4,5-b]pyridin-3-yl) benzenesulfonamide], the Ki at hCA IX was 287 nM; on hCA IV, 167 nM; on hCA I, 790 nM; at hCA II it was 957 nM.
For `N=c1c2nnn(-c3ccc(S(N)(=O)=O)cc3)c2[nH]c(=S)n1-c1ccc(S(=O)(=O)Nc2cnc3ccccc3n2)cc1` [compound 21], the Ki at hCA IX turned out to be 3810 nM; on hCA IV, 5030 nM; on hCA I, 5840 nM; at hCA II, 2370 nM.
Regarding `N=c1c2nnn(-c3ccc(S(N)(=O)=O)cc3)c2[nH]c(=O)n1-c1ccccc1` [compound 19, 4-(7-imino-5-oxo-6-phenyl-4,5,6,7-tetrahydro-3H-[1,2,3]triazolo[4,5-d]pyrimidin-3-yl)benzenesulfonamide], the inhibition constant Ki amounted to 158 nM on hCA IX, 2270 nM on hCA IV, 2800 nM at hCA I and 589 nM at hCA II.
The like results for `Cc1ccc(S(=O)(=O)Nc2c(C#N)nnn2-c2ccc(S(N)(=O)=O)cc2)cc1` [compound 12, N-(4-cyano-1-(4-sulfamoylphenyl)-1H-1,2,3-triazol-5-yl)-4-methylbenzenesulfonamide] were, in that order, 105 nM, 2610 nM, 8100 nM and 90.1 nM.
Taken in the same sequence, the figures for `CN(C)c1ccc(/C=N/c2c(C#N)nnn2-c2ccc(S(N)(=O)=O)cc2)cc1` [compound 10, (E)-4-(4-cyano-5-((4-(dimethylamino)benzylidene)amino)-1H-1,2,3-triazol-1-yl)benzenesulfonamide] were 451 nM, 3410 nM, 2920 nM and 179 nM.
Take `[N-]=[N+]=Nc1ccc(S(N)(=O)=O)cc1` [compound 2, 4-azido benzenesulfonamide]: the Ki on hCA IX was 235 nM; at hCA IV, above 10000 nM.
In the case of `N#Cc1nnn(-c2ccc(S(N)(=O)=O)cc2)c1N` [compound 3, 4-(5-amino-4-cyano-1H-1,2,3-triazol-1-yl)benzenesulfonamide], the Ki on hCA IX was found to be 118 nM; at hCA IV, 2270 nM; on hCA I, 1940 nM; at hCA II it was 16.7 nM.
For the compound `CC(=O)CC(=O)Nc1c(C#N)nnn1-c1ccc(S(N)(=O)=O)cc1` [compound 6, N-(4-cyano-1-(4-sulfamoylphenyl)-1H-1,2,3-triazol-5-yl)-3-oxobutanamide], the Ki at hCA IX stood at 410 nM; at hCA IV, 472 nM; on hCA I, 2860 nM; on hCA II, 684 nM.
In the case of `N#Cc1nnn(-c2ccc(S(N)(=O)=O)cc2)c1/N=C/c1ccc(Cl)cc1` [compound 9, (E)-4-(5-((4-chlorobenzylidene)amino)-4-cyano-1H-1,2,3-triazol-1-yl) benzenesulfonamide], the Ki on hCA IX amounted to 307 nM; at hCA IV, 4670 nM; on hCA I it was 1600 nM; at hCA II, 94.5 nM.
In the case of `N#Cc1c(-c2ccccc2)nc2c(nnn2-c2ccc(S(N)(=O)=O)cc2)c1N` [compound 14, 4-(7-amino-6-cyano-5-phenyl-3H-[1,2,3]triazolo[4,5-b]pyridin-3-yl)benzenesulfonamide], the Ki on hCA IX was determined as 46.4 nM; on hCA IV, 676 nM; on hCA I, 1250 nM; at hCA II, 57 nM.
